Data from PMC5905120, “An innovative immunotherapeutic strategy for ovarian cancer: CLEC10A and glycomimetic peptides” (Journal for Immunotherapy of Cancer, 2018).
Bridges are numbered along the chain shown (N, C = ends). Roman numbers before positions name the chains, in order. Where no end group is shown, it is not given here.

Columns and labels:
[1] = test system: peritoneal cells of C57BL/6 mice; assay: Peritoneal immune cell populations by flow cytometry, C57BL/6 mice; type: in vivo, mouse (C57BL/6)
Description: Healthy C57BL/6 male mice, 10 weeks old, were injected subcutaneously with peptides on alternate days. Peritoneal cells were isolated from mice 24 h after dosing by injecting ice cold PBS (containing 3% FBS) into the peritoneal cavity, gently massaging the abdomen, and then collecting the fluid, which was transferred into K2EDTA-treated tubes for evaluation of specific biomarkers. Cells from three mice in each group were pooled, counted and divided among FACS tubes (1 × 10^6 cells per tube). Cells were washed once in PBS containing 3% FBS, then stained with 0.25 to 1 μg of fluorescently conjugated antibody per 10^6 cells in 100 μL of buffer as recommended by the manufacturer (Table 2).
Cells were incubated with the antibodies for 30 min at 4 °C in the dark. Following staining, the cells were washed two times with PBS/3% FBS and immediately analyzed with a MACSQuant flow cytometer (Miltenyi Biotech, Inc., San Diego, CA). Compensation was performed using single stain tubes for each color present in the analysis as well as an unstained control sample. Collection of flow cytometric data and analysis with FlowJo software, version 10.0.6 (FlowJo, LLC, Ashland, OR) were performed by Biomodels LLC (Watertown, MA).
To examine whether increases occurred in mature immune cells, peritoneal cells from Balb/c and C57BL/6 mice were analyzed by flow cytometry after cells were stained with the markers listed in Table 2. […] To explore this observation more extensively, svL4 or sv6D was injected into C57BL/6 mice on day 0, 2 or 4. Peritoneal cells were examined by flow cytometry 24 h after each injection. Shown in Fig. 5 are results expressed as cell counts for F4/80 CD11b CD86 (mature, active macrophages); CD11c (DCs); CD11c CD 86 (activated DCs); CD4 CD69 (activated T cells); CD8 CD69 (activated cytotoxic T cells); NK1.1 CD3^+ CD69 (activated NKT cells); NK1.1 CD3^− CD69 (activated NK cells); CD19 (B cells); and CD19 CD73 CD80 CD273 (memory B cells). The numbers of these mature, activated cells continued to increase with each injection.
Fig. 5 Expansion of peritoneal cells in C57BL/6 mice. Mice were injected subcutaneously at a dose of 1 nmole/g body weight of svL4, sv6D or svC1. Cells in each population recovered in a peritoneal lavage are expressed as cell counts (in thousands). Cells from three mice in each treatment group were pooled for analysis. The number of cells in each population was normalized to the average recovery of total cells from all groups. For each cell type, the left-hand, middle and right-hand set of bars represent samples from mice treated with svL4, sv6D or svC1, respectively. Mice were injected on days 0, 2 and 4, and cells were collected 24 h after each injection. Day 1, open bar; day 3, grey bar; day 5, black bar. Populations that express activation markers are indicated by an asterisk

[2] = test system: peritoneal low FSc and low SSc cells; assay: Peritoneal small-cell population in 4T1 tumor-bearing Balb/c mice; type: in vivo, mouse (Balb/c); conditions: 1 nmole/g
Description: After tumors had reached a volume of at least 500 mm^3, the peritoneal population of low FSc and low SSc cells was minimal (Fig. S2a). […] We conclude that this population is possibly progenitor cells and that additional treatments would lead to maturation of this population, as observed with healthy animals.
Fig. S2. Increase in the population of small cells in the peritoneal cavity of Balb/c mice bearing tumors of breast 4T1 cancer cell line. svL4 (1 nmole/g) was injected on day 0 and day 2, with analysis 24 h after each injection. a) Pseudocolor scatter plots of peritoneal cells from untreated or treated mice on day 3, 24 h after the second injection. […] Untreated animals, blue; treated animals, orange. Peritoneal cells from 3 animals were pooled and analyzed in triplicate. c) Histograms of normalized SSc vs. FSc for samples of peritoneal cells from Balb/c mice on day 3, from Fig. S2b, i.e., 24 h after the second injection of svL4. Blue trace, untreated animals; red trace, svL4-treated animals.

[3] = test system: serum cytokines/chemokines (mouse L-308 membrane array); type: in vivo; conditions: 0.1 nmole/g s.c., 4 h, three animals pooled
Description: At 4 h post dose, terminal blood was pooled from 3 animals per group and prepared for serum. Shown in Fig. S3 are the relative levels of cytokines/chemokines in sera in response to injections of 0.1 (orange bars) or 1.0 nmole/g (grey bars) svL4 as compared with animals injected with PBS (blue).

[4] = * control value negligible or low

I: VQATQSNQHTPRGGGSKK-NH2 / II: VQATQSNQHTPRGGGSK / III: VQATQSNQHTPRGGGS / IV: VQATQSNQHTPRGGGS (amide I:17-IV:C, I:18-II:C, II:17-III:C) [svL4]
decrease of CD90.2^+ cells as small-cell population increased ([1]; 0.05 nmole/g svL4): more than 50% | response of CD19^+ B cells vs. sv6D ([1]; 1 nmole/g s.c. on days 0, 2, 4, Fig. 5): responded more strongly to svL4 | increase in mature immune cells ([1]; 1 nmole/g s.c., single vs. second injection, 24 h): a significant increase occurred only after the second injection | Lin/CD90.2 status of small cells ([1]; 0.1 or 0.5 nmole/g svL4): nearly all cells were Lin^Neg and CD90.2^Neg | increase in mature immune cells ([1]; within 24 h after an injection (data not shown)): Essentially no increase | small cells (low FSc, low SSc) ([1]; within 24 h after injection, healthy C57BL/6, Fig. S1a): several-fold increase | size of small-cell population ([2]; 24 h after first injection): not changed significantly | CD3^+ fraction of small cells ([2]; after second injection): 0.5% | CD19^+ fraction of small cells ([2]; after second injection): about 3% | size of small-cell population ([2]; within 24 h after second injection): dramatic increase | ratio treated/untreated serum CCL1 [3]: 2.5 | ratio treated/untreated serum IL-1α [3]: 2.7 | ratio treated/untreated serum IL-12p70 [3]: 3.5 | ratio treated/untreated serum IL-16 [3]: 4 | ratio treated/untreated serum IL-27 [3]: 4.5 | ratio treated/untreated serum IL-28 [3]: 4.3 | ratio treated/untreated serum IL-31 [3]: 3.5 | ratio treated/untreated serum Lymphotactin [3]: ~ 3 | ratio treated/untreated serum MIP-2/CXCL2 [3]: ~ 6 | ratio treated/untreated serum Pentraxin3 [3]: ~ 4 | ratio treated/untreated serum SPARC [3]: ~ 5 | ratio treated/untreated serum TIMP-2 [3]: 3 | ratio treated/untreated serum TLR2 [3]: 4.2 | ratio treated/untreated serum sHVEM [3]: ~ 2 | ratio treated/untreated serum IFN-γ [3, 4]: High^* | ratio treated/untreated serum Lymphotoxin-α [3, 4]: 12.5* | ratio treated/untreated serum TNFα [3, 4]: 45*
